Source: patent US20240150377A1, “MODULATORS OF CYSTIC FIBROSIS TRANSMEMBRANE CONDUCTANCE REGULATOR” (VERTEX PHARMACEUTICALS INCORPORATED, priority 2020, published 2024)
Where two headings read alike, the source gives them in different places.

Target: CFTR (Homo sapiens, UniProt P13569)
Assay: Membrane potential dye, Enteroid Assay A
Format: cell-based
Conditions: for Ent. A Max Activity: chloride transport as % of triple combination control (Enteroid Assay A); for EC50: human enteroid cells, 18-24 hours, acute 10 μM forskolin and 300 nM ivacaftor, read-out: Ent. A EC50
Summary of the method: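 % Activity: chloride transport relative to a 3 μM/3 μM corrector pair plus 300 nM acute potentiator control. Primary human enteroid cells, 18-24 h compound exposure at 37 °C; membrane potential dye (methyl oxonol) fluorescence over 15 min after forskolin (10 μM)/IBMX (100 μM)/Compound III (300 nM) stimulation in chloride-free buffer.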

Chain of CFTR (P13569 with tags, fused parts or gaps DEL508-508): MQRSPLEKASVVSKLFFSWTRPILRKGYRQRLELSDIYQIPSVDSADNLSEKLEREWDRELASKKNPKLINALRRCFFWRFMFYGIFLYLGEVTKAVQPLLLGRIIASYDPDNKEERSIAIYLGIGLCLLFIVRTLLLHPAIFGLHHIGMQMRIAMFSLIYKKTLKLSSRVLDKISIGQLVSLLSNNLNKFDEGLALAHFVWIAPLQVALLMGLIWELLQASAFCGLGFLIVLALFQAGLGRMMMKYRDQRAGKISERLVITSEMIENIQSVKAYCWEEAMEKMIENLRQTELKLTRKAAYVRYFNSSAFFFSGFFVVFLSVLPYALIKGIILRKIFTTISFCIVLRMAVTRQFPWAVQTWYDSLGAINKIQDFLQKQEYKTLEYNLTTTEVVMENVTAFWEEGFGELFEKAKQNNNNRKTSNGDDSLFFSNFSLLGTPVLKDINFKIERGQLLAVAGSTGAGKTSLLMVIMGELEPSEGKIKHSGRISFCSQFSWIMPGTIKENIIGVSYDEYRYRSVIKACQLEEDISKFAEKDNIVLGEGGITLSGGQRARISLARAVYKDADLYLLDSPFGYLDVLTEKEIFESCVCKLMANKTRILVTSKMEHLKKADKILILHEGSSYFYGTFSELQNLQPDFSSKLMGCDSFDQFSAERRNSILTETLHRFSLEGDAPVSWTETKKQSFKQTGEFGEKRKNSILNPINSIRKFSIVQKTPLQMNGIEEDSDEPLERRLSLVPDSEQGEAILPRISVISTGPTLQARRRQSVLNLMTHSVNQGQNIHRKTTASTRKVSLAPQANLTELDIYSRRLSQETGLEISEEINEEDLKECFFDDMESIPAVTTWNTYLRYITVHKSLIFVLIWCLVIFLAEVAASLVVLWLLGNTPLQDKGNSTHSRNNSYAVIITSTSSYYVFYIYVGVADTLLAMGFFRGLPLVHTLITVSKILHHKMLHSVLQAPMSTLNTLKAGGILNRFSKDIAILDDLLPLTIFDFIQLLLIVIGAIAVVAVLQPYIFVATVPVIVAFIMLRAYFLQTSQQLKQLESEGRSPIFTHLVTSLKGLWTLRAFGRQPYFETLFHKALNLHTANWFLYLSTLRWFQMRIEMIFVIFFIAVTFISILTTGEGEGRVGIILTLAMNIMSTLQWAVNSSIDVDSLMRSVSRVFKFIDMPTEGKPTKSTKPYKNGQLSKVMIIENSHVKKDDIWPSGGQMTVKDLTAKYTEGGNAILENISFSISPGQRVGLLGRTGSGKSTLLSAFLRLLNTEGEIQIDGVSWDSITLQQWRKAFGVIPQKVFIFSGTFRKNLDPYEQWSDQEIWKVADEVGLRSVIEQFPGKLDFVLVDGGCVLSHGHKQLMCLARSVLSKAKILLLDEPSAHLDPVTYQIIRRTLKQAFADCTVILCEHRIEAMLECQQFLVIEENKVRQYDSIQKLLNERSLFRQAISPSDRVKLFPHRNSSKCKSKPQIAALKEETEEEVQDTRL

| Ent. A Max Activity (Table 7) | EC50 (Table 7) | Ent. A Max Activity (Table 6) | EC50 (Table 6) | Compound |
| --- | --- | --- | --- | --- |
| +++ (+++ is >60%) | < 1000 nM | – | – | Cc1cccc(C)c1-c1cc2nc(n1)NS(=O)(=O)c1cccc(c1)C(=O)N(Cc1ccc(N3CCC3)nc1)[C@H](CC(C)C)CO2 [Compound 950] |
| +++ (+++ is >60%) | < 1000 nM | – | – | Cc1cccc(C)c1-c1cc2nc(n1)NS(=O)(=O)c1cccc(c1)C(=O)N(Cc1ccc(N3CCC(C)(C)CC3)nc1)[C@H](CC(C)C)CO2 [Compound 940] |
| – | – | +++ (+++ is >60%) | < 1000 nM | Cc1cccc(C)c1-c1cc2nc(n1)NS(=O)(=O)c1cccc(c1)C(=O)N(CCC(C)C)C(CCC1(C(F)(F)F)CC1)CO2 (stereo not shown) [Compound 688] |
| +++ (+++ is >60%) | < 1000 nM | – | – | Cc1cccc(C)c1-c1cc2nc(n1)NS(=O)(=O)c1cccc(c1)C(=O)N(Cc1ccc(N3CCC(C)(O)CC3)nc1)[C@H](CC(C)C)CO2 [Compound 939] |
| – | – | +++ (+++ is >60%) | < 1000 nM | Cc1cccc(C)c1-c1cc2nc(n1)NS(=O)(=O)c1cccc(c1)C(=O)N(C)[C@H](CC(C)C)[C@H](C)O2 [Compound 991] |
| +++ (+++ is >60%) | < 1000 nM | – | – | Cc1cccc(C)c1-c1cc2nc(n1)NS(=O)(=O)c1cccc(c1)C(=O)N(C)[C@H](CC(C)C)C(c1ccccn1)O2 (stereo partly shown) [Compound 337] |
| +++ (+++ is >60%) | < 1000 nM | – | – | Cc1cccc(C)c1-c1cc2nc(n1)NS(=O)(=O)c1cccc(c1)C(=O)N(Cc1ccc(N3CCN(C)CC3)nc1)[C@H](CC1(C(F)(F)F)CC1)CO2 [Compound 684] |
| – | – | + (+ is <30%) | – | Cc1cccc(C)c1-c1cc2nc(n1)NS(=O)(=O)c1cccc(c1)C(=O)N(C)C[C@H](CNCCC(C)(C)C)O2 [Compound 1017] |
| – | – | +++ (+++ is >60%) | < 1000 nM | Cc1cccc(C)c1-c1cc2nc(n1)NS(=O)(=O)c1cccc(c1)C(=O)N(Cc1ccnn1C)[C@H](CC(C)C)CO2 [Compound 345] |
| +++ (+++ is >60%) | < 1000 nM | – | – | Cc1cccc(C)c1-c1cc2nc(n1)NS(=O)(=O)c1cccc(c1)C(=O)N(Cc1ccc(N3CC[C@@H](C)C3)nc1)[C@H](CC(C)C)CO2 [Compound 958] |
| + (+ is <30%) | < 1000 nM | – | – | Cc1cccc(C)c1-c1cc2nc(n1)NS(=O)(=O)c1cccc(c1)C(=O)N(CCC(C)(C)C)[C@H](CC1(C(F)(F)F)CC1)CO2 [Compound 686] |
| – | – | +++ (+++ is >60%) | < 1000 nM | Cc1cccc(C)c1-c1cc2nc(n1)NS(=O)(=O)c1cccc(c1)C(=O)N(CCC(C)C)[C@H](CC(C)C)CO2 [Compound 369] |
| – | – | +++ (+++ is >60%) | < 1000 nM | Cc1cccc(C)c1-c1cc2nc(n1)NS(=O)(=O)c1cccc(c1)C(=O)N(Cc1ccccc1)CCO2 [Compound 978] |
| – | – | +++ (+++ is >60%) | 1000 to 3000 nM | Cc1cccc(C)c1-c1cc2nc(n1)NS(=O)(=O)c1cccc(c1)C(=O)N(C)CC(c1ccc(-c3ccccc3)cn1)O2 (stereo not shown) [Compound 513] |
| – | – | +++ (+++ is >60%) | < 1000 nM | Cc1cccc(C)c1-c1cc2nc(n1)NS(=O)(=O)c1cccc(c1)C(=O)N(CCC(C)(C)C)[C@H](CC(C)C)CO2 [Compound 429] |
| +++ (+++ is >60%) | < 1000 nM | – | – | Cc1cccc(C)c1-c1cc2nc(n1)NS(=O)(=O)c1cccc(c1)C(=O)N(Cc1ccc(N(C)C)nc1)[C@H](CC(C)C)CO2 [Compound 949] |
| +++ (+++ is >60%) | < 1000 nM | – | – | Cc1cccc(C)c1-c1cc2nc(n1)NS(=O)(=O)c1cccc(c1)C(=O)N(Cc1ccc(N3CCC(C#N)CC3)nc1)[C@H](CC(C)C)CO2 [Compound 972] |
| – | – | +++ (+++ is >60%) | < 1000 nM | Cc1cccc(C)c1-c1cc2nc(n1)NS(=O)(=O)c1cccc(c1)C(=O)N(Cc1cnn(C)c1)[C@H](CC(C)C)CO2 [Compound 432] |
| – | – | +++ (+++ is >60%) | < 1000 nM | Cc1cccc(C)c1-c1cc2nc(n1)NS(=O)(=O)c1cccc(c1)C(=O)N(Cc1cnc3ccccn13)[C@H](CC(C)C)CO2 [Compound 368] |
| – | – | + (+ is <30%) | – | Cc1cccc(C)c1-c1cc2nc(n1)NS(=O)(=O)c1cccc(c1)C(=O)N(CCC1CCOCC1)[C@H](CCC1(C(F)(F)F)CC1)CO2 (single isomer, unassigned) [Compound 73, 6-(2,6-dimethylphenyl)-2,2-dioxo-12-(2-tetrahydropyran-4-ylethyl)-11-[2-[1-(trifluoromethyl)cyclopropyl]ethyl]-9-oxa-2λ^6-thia-3,5,12,19-tetrazatricyclo[12.3.1.14,8]nonadeca-1(18),4(19),5,7,14,16-hexaen-13-one] |

| Ent. A Max Activity (Table 7) | EC50 (Table 7) | Ent. A Max Activity (Table 6) | EC50 (Table 6) | Compound |
| --- | --- | --- | --- | --- |
| – | – | +++ (+++ is >60%) | < 1000 nM | Cc1cccc(C)c1-c1cc2nc(n1)NS(=O)(=O)c1cccc(c1)C(=O)N(Cc1ccc(N3CCCC3)cc1)[C@H](CC(C)C)CO2 [Compound 858] |
| +++ (+++ is >60%) | < 1000 nM | – | – | CC(=O)N1CCC2(CC1)CC(CN1C(=O)c3cccc(c3)S(=O)(=O)Nc3nc(cc(-c4c(C)cccc4C)n3)OC[C@H]1CC(C)C)C2 [Compound 90, (11R)-12-[(7-Acetyl-7-azaspiro[3.5]nonan-2-yl)methyl]-6-(2,6-dimethylphenyl)-11-isobutyl-2,2-dioxo-9-oxa-2λ^6-thia-3,5,12,19-tetrazatricyclo[12.3.1.14,8]nonadeca-1(18),4(19),5,7,14,16-hexaen-13-one] |
| +++ (+++ is >60%) | < 1000 nM | – | – | COc1ccc(CN2C(=O)c3cccc(c3)S(=O)(=O)Nc3nc(cc(-c4c(C)cccc4C)n3)OC[C@H]2CC2(C(F)(F)F)CC2)cc1 [Compound 679] |
| – | – | ++ (++ is 30-60%) | 3000 to 30000 nM | Cc1cccc(C)c1-c1cc2nc(n1)NS(=O)(=O)c1cccc(c1)C(=O)N(C)CC(c1ccc(C3=CCN(C)CC3)cc1)O2 (stereo not shown) [Compound 676] |
| – | – | +++ (+++ is >60%) | < 1000 nM | Cc1cccc(C)c1-c1cc2nc(n1)NS(=O)(=O)c1cccc(c1)C(=O)N(CCCn1cccn1)[C@H](CC(C)C)CO2 [Compound 354] |
| – | – | +++ (+++ is >60%) | < 1000 nM | Cc1cc(CN2C(=O)c3cccc(c3)S(=O)(=O)Nc3nc(cc(-c4c(C)cccc4C)n3)OC[C@H]2CC(C)C)[nH]n1 [Compound 430] |
| +++ (+++ is >60%) | < 1000 nM | – | – | Cc1cccc(C)c1-c1cc2nc(n1)NS(=O)(=O)c1cccc(c1)C(=O)N(Cc1ccc(N3CCCC3)nc1)[C@H](CC(C)C)CO2 [Compound 961] |
| +++ (+++ is >60%) | < 1000 nM | – | – | Cc1cccc(C)c1-c1cc2nc(n1)NS(=O)(=O)c1cccc(c1)CN(CC1CCOCC1)[C@H](CC(C)C)CO2 [Compound 1041] |
| +++ (+++ is >60%) | 1000 to 3000 nM | – | – | Cc1cccc(C)c1-c1cc2nc(n1)NS(=O)(=O)c1cccc(c1)CN(C(=O)CC1CCN(C)CC1)[C@H](CC(C)C)CO2 [Compound 1048] |
| – | – | +++ (+++ is >60%) | 1000 to 3000 nM | Cc1cccc(C)c1-c1cc2nc(n1)NS(=O)(=O)c1cccc(c1)C(=O)N(Cc1ccc[nH]c1=O)[C@H](CC(C)C)CO2 [Compound 989] |
| – | – | + (+ is <30%) | – | Cc1cccc(C)c1-c1cc2nc(n1)NS(=O)(=O)c1cccc(c1)C(=O)N(CCC(C)C)[C@H](CCC1(C(F)(F)F)CC1)CO2 [Compound 851] |
| – | – | +++ (+++ is >60%) | < 1000 nM | Cc1cccc(C)c1-c1cc2nc(n1)NS(=O)(=O)c1cccc(c1)C(=O)N(Cc1cccnc1)[C@H](CC(C)C)CO2 [Compound 364] |
| ++ (++ is 30-60%) | < 1000 nM | – | – | Cc1cccc(C)c1-c1cc2nc(n1)NS(=O)(=O)c1cccc(c1)CN(CCC(C)CC(C)(C)C)[C@H](CC(C)C)CO2 (stereo partly shown) [Compound 1022] |
| – | – | ++ (++ is 30-60%) | 1000 to 3000 nM | Cc1cccc(C)c1-c1cc2nc(n1)NS(=O)(=O)c1cccc(c1)C(=O)N(Cc1ccc(P(C)(C)=O)cc1)[C@H](CC(C)C)CO2 [Compound 88, (11R)-6-(2,6-Dimethylphenyl)-12-[(4-dimethylphosphorylphenyl)methyl]-11-isobutyl-2,2-dioxo-9-oxa-2λ^6-thia-3,5,12,19-tetrazatricyclo[12.3.1.14,8]nonadeca-1(18),4(19),5,7,14,16-hexaen-13-one] |
| +++ (+++ is >60%) | < 1000 nM | – | – | Cc1cccc(C)c1-c1cc2nc(n1)NS(=O)(=O)c1cccc(c1)C(=O)N(Cc1ccc(N3CCC(O)CC3)nc1)[C@H](CC(C)C)CO2 [Compound 966] |
| – | – | ++ (++ is 30-60%) | < 1000 nM | Cc1cccc(C)c1-c1cc2nc(n1)NS(=O)(=O)c1cccc(c1)C(=O)N(C)CC(c1ccc(-c3ccncc3)cc1)O2 (stereo not shown) [Compound 9, 6-(2,6-Dimethylphenyl)-12-methyl-2,2-dioxo-10-[4-(4-pyridyl)phenyl]-9-oxa-2λ^6-thia-3,5,12,19-tetrazatricyclo[12.3.1.14,8]nonadeca-1(18),4(19),5,7,14,16-hexaen-13-one] |
| + (+ is <30%) | – | – | – | Cc1cccc(C)c1-c1cc2nc(n1)NS(=O)(=O)c1cccc(c1)CN(C(=O)CC(C)C)[C@H](CC(C)C)CO2 [Compound 1049] |
| – | – | +++ (+++ is >60%) | < 1000 nM | COc1cccc(CN2C(=O)c3cccc(c3)S(=O)(=O)Nc3nc(cc(-c4c(C)cccc4C)n3)OC[C@H]2CC(C)C)c1 [Compound 348] |
| – | – | +++ (+++ is >60%) | < 1000 nM | Cc1ccccc1CN1C(=O)c2cccc(c2)S(=O)(=O)Nc2nc(cc(-c3c(C)cccc3C)n2)OC[C@H]1CC(C)C [Compound 356] |
| – | – | +++ (+++ is >60%) | < 1000 nM | Cc1cccc(C)c1-c1cc2nc(n1)NS(=O)(=O)c1cccc(c1)C(=O)N(CCc1ccccc1)[C@H](CC(C)C)CO2 [Compound 355] |
